# Reference: patent US7745401B2, “Antifungal peptides and methods of use thereof” (The Board of Regents of the University of Oklahoma, priority 2005, dated 2010)
# Entries after “also recorded” stand apart in the source; their conditions may differ. Where a SMILES comes first, the peptide text is derived from it.
# How the values were obtained:
# [1] = test system: C. tropicalis; test: In vitro candidacidal assay, C. tropicalis; format: cell-based; details: 400 μg/ml (150 μM)
# Method: (§1) Isolates used in this study included Candida albicans (ATCC 28367), three fluconazole sensitive mucosal isolates of C. albicans, designated A-22, A-111 and A-155, three fluconazole resistant mucosal isolates of C. albicans designated A-46, A-5, and A-20, and a blood isolate of C. albicans designated WDO. Isolates were stored frozen at −70° C. and streaked onto Sabouraud Dextrose Agar (Sigma, St. Louis, Mo.) plates and maintained on plates at 4° C., with subculturing onto new plates approximately every 10 days for the duration of the studies. Fluconazole resistance was evaluated. Three clinical isolates of C. glabrata, two clinical isolates of C. dubliniensis, and single isolate each of C. krusei, C. guilliermondii, C. parapsilosis, C. pseudotropicalis and C. tropicalis and two isolates of Saccharomyces cerevisiae were also used in this study and were maintained on Sabouraud Dextrose agar plates at 4° C. A single yeast colony was cultured overnight at 33° C. in 1% phytone peptone broth (Becton Dickinson, Sparks Md.) with 0.1% D-glucose (Sigma).
# (§2) Stock solutions of all peptides were made up at concentrations of 1 mg/ml in sterile endotoxin-free water for irrigation (Baxter, Deerfield, Ill.). Subsequent dilutions were all made in tryptone saline pH 5.5 (Shafer et al., Infect Immun, 1984). […] The optical density was read and the culture adjusted to 500 blastospores/100 μl in tryptone saline pH 5.5 (Shafer et al., Infect Immun, 1984). […] The colony forming units (cfu) were counted and the fungicidal activity was expressed as percent killed and calculated according to the following equation: [(control cfu−test cfu)/control cfu]×100=% killed. […] Test cfu is determined by counting the number of colonies present after incubation in tryptone saline containing the peptide. […]
# [2] = test system: Salmonella typhimurium, Escherichia coli, and Pseudomonas aeruginosa; details: Gram negative organisms; cited from earlier work
# [3] = test system: Candida albicans; format: cell-based
# Method: as §1
# Stock solutions of all peptides were made up at concentrations of 1 mg/ml in sterile endotoxin-free water for irrigation (Baxter, Deerfield, Ill.). Subsequent dilutions were all made in tryptone saline pH 5.5 (Shafer et al., Infect Immun, 1984). An aliquot (100 μl) of an overnight culture of a single colony grown at 33° C. in 1% phytone peptone broth with 0.1% glucose was subcultured in 5 ml of 1% phytone peptone broth with 0.1% glucose and incubated in a shaking water bath (80 oscillations per min, Precision, Winchester, Va.) for 90 min at 33° C. to yield a logarithmic culture. […] The optical density was read and the culture adjusted to 500 blastospores/100 μl in tryptone saline pH 5.5 (Shafer et al., Infect Immun, 1984). To 100 μl of the organism suspension in a 96 well sterile polystyrene microtiter plate (Becton Dickinson, Franklin Lakes, N.J.) was added 100 μl of the peptide (final concentrations 400 μg/ml and 200 μg/ml) or 100 μl of tryptone saline. The latter served as a control. The microtiter plate was incubated at 37° C. for 4 hr and 100 μl of the contents from each well was plated on Sabouraud Dextrose agar plates and incubated at 37° C. overnight. The colony forming units (cfu) were counted and the fungicidal activity was expressed as percent killed and calculated according to the following equation: [(control cfu−test cfu)/control cfu]×100=% killed. Control cfu is indicated by the number of colonies present after […] of incubation in tryptone saline alone in the absence of peptide. Test cfu is determined by counting the number of colonies present after incubation in tryptone saline containing the peptide. Each experimental point was performed in triplicate.
# C. albicans (ATCC 28367) was used to standardize the in vitro killing assay. We explored the optimal growth conditions (temperature and time, 25° C. for 5 h and 33° C. for 90 min), numbers of blastospores per well (200, 400, 500, 600, 800, and 1000 cfu), range of peptide concentrations (750, 500, 400, 200 and 100 μg/ml) and the contact time between peptide and Candida (1, 2 and 4 hr) for killing to occur. […] The 90 minute incubation was more convenient technically and was therefore employed routinely. The optimum numbers of cfu per well was determined to be 500 and an incubation time of 4 hr at 37° C. between Candida and peptide was required to obtain optimal killing.
# [4] = test system: C. glabrata; test: In vitro candidacidal assay, C. glabrata; format: cell-based; details: one isolate of three; 400 μg/ml (150 μM)
# Method: as §1, §2
# [5] = test system: C. dubliniensis; test: In vitro candidacidal assay, C. dubliniensis; format: cell-based; details: two isolates; 400 μg/ml (150 μM)
# Method: as §1, §2
# [6] = test system: E. coli lipopolysaccharide (LPS); details: conscious rat; cited from earlier work
# [7] = test system: C. albicans (fluconazole sensitive isolate); test: FUN-1 vital dye yeast viability, confocal microscopy, C. albicans; format: cell-based, Candida albicans; details: 400 μg/ml, 37° C. for 2 hr
# Method: Yeast viability was also assessed using the FUN-1 Live/Dead Yeast Viability Kit (Molecular Probes, Eugene, Oreg.). The methodology employed was essentially according to the protocol provided by the vendor for use with fluorescent microscopy. Briefly, yeast cultures were prepared exactly as stated above. C. glabrata, C. pseudotropicalis, C. albicans (fluconazole sensitive isolate) and S. cerevisiae (5×10^5 cfu in 100 μl of tryptone saline) were incubated (37° C. for 2 hr) in the absence or presence of peptide (CAP37(20-44)nat and CAP37(20-44)ser26/42) at a final concentration of 400 μg/ml. At the end of the incubation period, the samples were transferred to microcentrifuge tubes and centrifuged (10,000×g for 3 min at room temperature). The supernatant was removed and the pellet resuspended in 25 μl of GH solution (2% D-glucose containing 10 mM Na-HEPES, pH 7.2) as described in the technical data sheet provided by the vendor. A working solution of the FUN-1 reagent (100 μl of 10 μM) was prepared from 10 mM stock solution and 25 μl (final concentration 5 μM) added to the yeast and incubated at room temperature for 30 min. A sample (10 μl) was placed on a microscope slide and staining observed under a Leica TCS NT confocal microscope using Ar-488 and Kr-568 Lasers and 63x Plan APO 1.2 NA water immersion objective. Images were scanned and analyzed using the Leica TCS software.
smiles,measurement,setting,value
"CC[C@H](C)[C@H](NC(=O)[C@H](CC(C)C)NC(=O)[C@H](C)NC(=O)CNC(=O)CNC(=O)[C@H](CS)NC(=O)[C@H](Cc1ccccc1)NC(=O)[C@H](Cc1c[nH]cn1)NC(=O)[C@H](CCCNC(=N)N)NC(=O)CNC(=O)[C@H](CCC(N)=O)NC(=O)[C@@H](N)CC(N)=O)C(=O)N[C@@H](Cc1c[nH]cn1)C(=O)N[C@@H](C)C(=O)N[C@@H](CCCNC(=N)N)C(=O)N[C@@H](Cc1ccccc1)C(=O)N[C@H](C(=O)N[C@@H](CCSC)C(=O)N[C@H](C(=O)N[C@@H](C)C(=O)N[C@@H](C)C(=O)N[C@@H](CO)C(=O)N[C@@H](CS)C(=O)N[C@@H](Cc1ccccc1)C(=O)N[C@@H](CCC(N)=O)C(=O)O)[C@@H](C)O)C(C)C [CAP37(20-44)nat, NQGRHFCGGALIHARFVMTAASCFQ] (H-NQGRHFCGGALIHARFVMTAASCFQ-OH; N-terminus and C-terminus assumed)",activity against C. tropicalis,[1],killed
same,bactericidal activity,[2],potent bactericidal activity; also recorded: mimicked the antimicrobial activity of the native molecule
same,killing,[3],> 75%
same,killing with varying peptide concentrations,"[3]; C. albicans ATCC 28367, 750, 500, 400, 200 and 100 μg/ml",Dose dependent killing
same,killing of blood isolate of Candida,"[3]; blood isolate of C. albicans, 400 μg/ml (150 μM)",killed
same,peptide concentration required for activity,[3]; fluconazole resistant isolate A-46,400 µg/mL
same,activity at the lower concentration,"[3]; fluconazole resistant isolates A-5 and A-20, 200 μg/ml or 75 μM",significant activity
same,activity against C. albicans,[3]; in vitro killing efficacy,significant activity
same,fungicidal or fungistatic effect,"[3]; isolates A-5, A-20, A-46 and A-155, viable colony counts versus starting inoculum",fungicidal rather than fungistatic
same,activity against fluconazole resistant isolates,[3]; isolates A-5 and A-20,highly active
same,activity against fluconazole sensitive isolates,"[3]; isolates A-155, A-22 and A-111, 400 μg/ml",strongly active
same,activity against C. glabrata,[4],"effective against both isolates of C. dubliniensis and one isolate of C. glabrata, although to a lesser extent"
same,activity against C. dubliniensis,[5],"effective against both isolates of C. dubliniensis and one isolate of C. glabrata, although to a lesser extent"
same,efficacy against lethal effects of LPS,[6],attenuating the lethal effects
same,blastoconidia stained green or green-yellow (dead),[7],70-80%
